Measurements taken from patent publication US20210274784A1, “HERBICIDAL MIXTURES COMPRISING ISOXAFLUTOLE, SAFLUFENACIL AND AN IMIDAZOLINONE HERBICIDE; AND THEIR USE IN SOYBEAN AND COTTON CULTURES” (BASF SE, priority 2018, published 2021).

Tested on: ALOMY (Alopecurus myosuroides, Blackgrass)
Assay: post-emergence greenhouse experiment, herbicidal action (scale 0 to 100)
Format: in vivo
Details: test period 20 days
From the text: The culture containers used were plastic flowerpots containing loamy sand with approximately 3.0% of humus as the substrate. The seeds of the test plants were sown separately for each species. For pre-emergence treatment, the active ingredients, which had been suspended or emulsified in water, were applied directly after sowing by means of finely distributing nozzles. The containers were irrigated gently to promote germination and growth and subsequently covered with transparent plastic hoods until the plants had rooted. This cover caused uniform germination of the test plants, unless this had been impaired by the active ingredients. For post-emergence treatment, the test plants were first grown to a height of 3 to 32 cm, depending on the plant habit, and only then treated with the active ingredients which had been suspended or emulsified in water. For this purpose, the test plants were either sown directly and grown in the same containers, or they were first grown separately as seedlings and transplanted into the test containers a few days prior to treatment. Depending on the species, the plants were kept at 10-25° C. or 20-35° C., respectively. The test period extended over 20 days. During this time, the plants were tended, and their response to the individual treatments was evaluated. The evaluation was carried out by using a scale from 0 to 100. […]

In the case of `CS(=O)(=O)c1cc(C(F)(F)F)ccc1C(=O)c1cnoc1C1CC1` [Isoxaflutole, isoxaflutole], the “Herbicidal action against ALOMY, Found” value (growth stage 11, Isoxaflutole 3.125 g/ha alone) is reported as 0 and the “Herbicidal action against ALOMY, Found” value (growth stage 11, Isoxaflutole 6.25 g/ha alone) is reported as 0.
